Literature values in patent publication US20130109746A1, “COMPOSITION COMPRISING ELLAGIC ACID AND A PARTICULAR CATIONIC SURFACTANT, AND COSMETIC USE THEREOF” (L'OREAL S.A., priority 2010, published 2013).

Conditions: in water and in the solvents and oils commonly used in cosmetic compositions

O=c1oc2c(O)c(O)cc3c(=O)oc4c(O)c(O)cc1c4c23 [ellagic acid, 2,3,7,8-tetrahydroxy(1)benzopyrano(5,4,3-cde)(1)benzopyran-5,10-dione]
solubility: very sparingly soluble
